Experimental data: patent publication US6475502B1, “Kits containing cyanoacrylate compositions comprising an antimicrobial agent” (Flowers Park Ltd., priority 1997, dated 2002)
Counter-ions that a name gives are not always drawn. Like-named read-outs stand apart in the source and are kept apart here. One block for each compound: values may come before it.

What was measured:
[1] = Solubility or suspendability of the antimicrobial agent in the n-butyl cyanoacrylate composition
[2] = Premature polymerization (gel formation) of the cyanoacrylate composition after mixing with the antimicrobial agent; assay type: physicochemical; conditions: for Period over which the composition polymerized after mixing: 5 weight percent agent based on total weight of composition; for Compatibility with the cyanoacrylate composition: overall conclusion of Example 1, for tetracycline hydrochloride and hexachlorophene when mixed immediately prior to use

Soluble [1]: no, gelled^1
SMILES: CC[C@H]1OC(=O)[C@H](C)[C@@H](O[C@H]2C[C@@](C)(OC)[C@@H](O)[C@H](C)O2)[C@H](C)[C@@H](O[C@@H]2O[C@H](C)C[C@H](N(C)C)[C@H]2O)[C@](C)(O)C[C@@H](C)C(=O)[C@H](C)[C@@H](O)[C@]1(C)O [Erythromycin, erythromycin]

SMILES: O=C([O-])c1ccccc1-c1c2cc(Br)c(=O)cc-2oc2[c]([Hg+])c([O-])c(Br)cc12.[Na+].[Na+].[OH-] [Merbromin, merbromin]
Soluble ([1]; in monomeric n-butyl cyanoacrylate with 100 ppm sulfur dioxide and 20 weight percent dioctyl phthalate, agent conc. per column Conc. (~20% iodine, 10% PVP-I2, 5% others)): no, gelled^1

SMILES: II [elemental iodine (I2), elemental iodine]
Soluble [1]: partially

SMILES: Oc1c(Cl)cc(Cl)c(Cl)c1Cc1c(O)c(Cl)cc(Cl)c1Cl [hexachlorophene]
Period over which the composition polymerized after mixing [2]: ~48 h
Compatibility with the cyanoacrylate composition [2]: compatible

SMILES: CN(C)[C@@H]1C(O)=C(C(N)=O)C(=O)[C@@]2(O)C(O)=C3C(=O)c4c(O)cccc4[C@@](C)(O)[C@H]3C[C@@H]12 [tetracycline hydrochloride]
Period over which the composition polymerized after mixing [2]: ~48 h
Compatibility with the cyanoacrylate composition [2]: compatible
